Assay results: patent US7135336B1, “Use of Xenopus laevis oocytes a microincubators” (University of South Florida, priority 2004, dated 2006)

Target: T1, human α4/β2 nicotinic receptors (Homo sapiens, UniProt P17787+P43681)
T1 construct: expressed in transfected cells; host or cells: Xenopus laevis oocytes injected with α4/β2 RNA (BMSC-injected and non-injected control oocytes)
Assay: Two electrode voltage clamp recordings of acetylcholine chloride concentration response in Xenopus laevis oocytes expressing human α4/β2 nicotinic receptors
Type: cell-based
Description: Electrophysiological Recordings. The last set of experiments was designed to investigate survival and lifespan differences between frog oocytes injected with BMSC and non-injected oocytes. Both groups were carefully maintained under the same conditions for a prolonged period of time. […] Whole cell currents were measured at room temperature, 48 hours after RNA injection.
Finally, the last set of experiments was devoted to the study of the longevity of recipient oocytes with control test for their functional activity in the form of ability of oocytes to express α4/β2 subunits of human nicotinic receptors in their membranes 48h after RNA injection.

[1] = BMSC injected 44 day old oocytes

T1 sequence (P43681 29-627 limits assumed): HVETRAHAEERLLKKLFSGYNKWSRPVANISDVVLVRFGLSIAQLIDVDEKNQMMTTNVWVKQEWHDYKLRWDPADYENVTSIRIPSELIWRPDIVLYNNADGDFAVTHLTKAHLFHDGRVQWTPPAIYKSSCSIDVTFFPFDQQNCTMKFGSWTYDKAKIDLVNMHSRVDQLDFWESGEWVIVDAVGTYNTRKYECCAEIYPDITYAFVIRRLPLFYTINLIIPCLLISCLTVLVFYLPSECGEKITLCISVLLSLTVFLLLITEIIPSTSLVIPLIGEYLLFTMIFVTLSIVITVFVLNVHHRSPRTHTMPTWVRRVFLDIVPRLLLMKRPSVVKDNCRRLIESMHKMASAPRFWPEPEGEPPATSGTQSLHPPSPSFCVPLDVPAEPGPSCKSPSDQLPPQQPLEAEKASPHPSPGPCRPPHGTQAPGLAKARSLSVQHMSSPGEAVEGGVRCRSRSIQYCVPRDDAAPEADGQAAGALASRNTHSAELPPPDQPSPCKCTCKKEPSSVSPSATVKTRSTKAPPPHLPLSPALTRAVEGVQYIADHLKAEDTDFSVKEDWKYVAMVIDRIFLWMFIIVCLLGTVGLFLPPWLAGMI
T1 sequence (P17787 26-502): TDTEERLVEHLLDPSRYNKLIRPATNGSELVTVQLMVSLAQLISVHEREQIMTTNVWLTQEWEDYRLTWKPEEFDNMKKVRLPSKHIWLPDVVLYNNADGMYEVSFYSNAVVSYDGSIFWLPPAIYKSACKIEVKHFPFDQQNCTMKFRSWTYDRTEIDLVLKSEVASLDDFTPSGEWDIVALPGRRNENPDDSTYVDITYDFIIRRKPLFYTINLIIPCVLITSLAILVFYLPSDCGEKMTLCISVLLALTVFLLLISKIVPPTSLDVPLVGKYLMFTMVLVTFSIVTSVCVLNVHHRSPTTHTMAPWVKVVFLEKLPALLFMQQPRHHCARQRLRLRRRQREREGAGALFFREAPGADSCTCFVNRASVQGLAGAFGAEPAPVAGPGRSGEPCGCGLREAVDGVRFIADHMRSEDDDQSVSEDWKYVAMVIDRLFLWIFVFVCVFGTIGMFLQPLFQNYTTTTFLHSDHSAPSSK

## CC(=O)OCC[N+](C)(C)C.[Cl-] [Ach, acetylcholine chloride]
[1]
  nH1 (high-affinity Hill coefficient): 0.51
  nH2 (low-affinity Hill coefficient): 3.0
high-affinity sites
  times lower concentration of agonist for 50% of Ach evoked peak current amplitude, BMSC injected vs control oocytes: 2.7 times
Low affinity sites
  times lower concentration of Ach for 50% of peak current, BMSC injected vs control oocytes: 3.8 times
non-injected control oocytes
  nH1 (high-affinity Hill coefficient): 0.68
  nH2 (low-affinity Hill coefficient): 2.6
